pIC50: −log10 of the molar value. Some results are limits rather than exact numbers.

By pIC50 is commonly meant −log10 of the IC50, conventionally taken in molar units.

For the assay, the system named is 8XTBD luciferase reporter. Put plainly: YAP Reporter Assay. Type of assay: cell-based. To be noted: Homo sapiens, HEK-293T; HEK293T cells stably transfected with 8XTBD luciferase reporter and pRLTK; 24-hr incubation; starting from 3 μM, 1:3 dilution, 10 points; read-out: Firefly Luciferase IC50. The procedure:
HEK293T cells stably transfected with 8XTBD luciferase reporter and pRLTK in 384-well plates were treated with the test compounds, starting from 3 μM (final concentration in assay plate), 1:3 dilution, and 10 points in quadruplicates. Post 24-hr incubation with compounds at 37° C. and 5% CO2, cells were lysed and 8XTBD-driven firefly luciferase and control TK-driven renilla luciferase activities were measured using Promega Dual-Luciferase Reporter Assay System.
Reagents: The reagents used for this study are: DMEM: Invitrogen #11960077, Dual-Glo Luciferase Assay System: Promega-E2980, Puromycin Dihydrochloride: Invitrogen-A1113803, 384-well plate: PerkinElmer-6007480, L-GLUTAMINE: Invitrogen-25030164, Hygromycin B: Invitrogen-10687010, and Penicillin-Streptomycin: Merk-TMS-AB2-C
Media: The media used for this assay were: Culture Medium: DMEM+1 ug/mL puromycin+200 ug/mL hygromycin (with 10% FBS+1 mM L-glutamine); and Assay Medium: DMEM (with 10% FBS+1 mM L-glutamine+1×P/S).
Cell Plating: The appropriate media was warmed at 37° C. by water bath: Culture Medium, Assay Medium, 1* D-PBS, 0.05% trypsin-EDTA. The cells were trypsinized after removing all media, then washed with 1* sterile D-PBS and then with 2 ml 0.05% trypsin-EDTA. The cells were then incubated at RT for one minute. Then 10 ml/75 cm2 flask Assay Medium was added to each flask. Using a 10 ml pipette, the cells were then gently resuspended in the media, until the clumps completely disappeared. The cells were then transferred into 50 ml centrifuge tubes and were centrifuged at 800 rpm for 5 mins. The medium was removed and the cells were resuspended with Assay Medium. An aliquot of cells was used to count the cell density (cells/ml). The cell suspension was then diluted with Assay Medium to a concentration of 6×10^4 cells/ml. 50 ul cells suspension was then plated to 384-well plate (PerkinElmer-6007480), 3×10^3 cells/well and the cells were incubated in an incubator at 37° C., 5% CO2.
Compound Treatment: In the afternoon (incubation of the plate with 3-4 hrs), the test compounds were added by Echo, starting from 3 uM (final concentration in the assay plate), 1:3 dilution, 10 points, quadruplicates. The plate was placed at 37° C., 5% CO2 incubator for 24 hrs.
Detection: The Dual-Glo Luciferase Reagent was prepared by transferring the contents of one bottle of Dual-Glo Luciferase Buffer to one bottle of Dual-Glo Luciferase Substrate to create the Dual-Glo Luciferase Reagent. Mixing was performed by inversion until the substrate was thoroughly dissolved. After mixing, the reagent was aliquoted into 15 ml tubes. In the afternoon (24 hrs post compound treatment), the DMEM+ medium in the 384 well plates were aspirated by Microplate Washer.
Measuring firefly luciferase activity: 20 ul Dual-Glo Luciferase Reagent was added to the 384-well plates. The plates were protected from light to prevent interference with the assay. The plates were shaken for 1 min followed centrifuging plates at 1000 rpm for 30 seconds. After waiting at least 10 minutes, the firefly luminescence was measured by Envision.
Measuring renilla luciferase activity: 20 ul Stop-Glo Reagent was added to the 384-well plates. The plates were shaken for 1 min and then centrifuged at 1000 rpm for 30 seconds. After waiting at least 10 minutes, the renilla luminescence was measured by Envision.
Compound IC50 and maximum inhibition on the firefly luciferase and renilla luciferase activities were reported separately.
For orientation: In a reporter assay the amount or activity of a reporter protein is the signal.
As for `CNS(=O)(=O)c1ccc(NC2CCCCC2)c(-c2nnn(C3CCCN(c4ccccc4)C3)n2)c1` (centres unmarked) [Compound 63, 4-(cyclohexylamino)-N-methyl-3-(2-(1-phenylpiperidin-3-yl)-2H-tetrazol-5-yl)benzenesulfonamide], the pIC50 was under 5.52.
For `CNS(=O)(=O)c1ccc(Nc2ccc(C(F)(F)F)cc2)c(-c2nnn(CCOCc3ccccc3)n2)c1` [Compound 115, 3-(2-(2-(benzyloxy)ethyl)-2H-tetrazol-5-yl)-N-methyl-4-((4-(trifluoromethyl)phenyl)amino)benzenesulfonamide] the value was 6.00 to 7.00; for `CNS(=O)(=O)c1ccc(NC2CCCCC2)c(-c2cncnc2)c1` [Compound 55, 4-(cyclohexylamino)-N-methyl-3-(pyrimidin-5-yl)benzenesulfonamide], under 5.52; for `CNS(=O)(=O)c1ccc(NC2CCCCC2)c(-c2nnn(CC(F)(F)F)n2)c1` [Compound 39, 4-(cyclohexylamino)-N-methyl-3-(2-(2,2,2-trifluoroethyl)-2H-tetrazol-5-yl)benzenesulfonamide], 6.00 to 7.00.
Next, `CNS(=O)(=O)c1ccc(Nc2c(F)cccc2F)c(-c2cn(C)cn2)c1` [Compound 149, 4-((2,6-Difluorophenyl)amino)-N-methyl-3-(1-methyl-1H-imidazol-4-yl)benzenesulfonamide]: at least 7.00; `CNS(=O)(=O)c1ccc(Nc2ccc(C(F)(F)F)cc2)c(-c2nnc(N)o2)c1` [Compound 133, 3-(5-amino-1,3,4-oxadiazol-2-yl)-N-methyl-4-[4-(trifluoromethyl)anilino]benzene-sulfonamide]: 6.00 to 7.00.
For the compound `CNS(=O)(=O)c1ccc(Nc2cccc(C(F)(F)F)c2)c(-c2ccnc(N)c2)c1` [Compound 152, 3-(2-Aminopyridin-4-yl)-N-methyl-4-((3-(trifluoromethyl)phenyl)amino) benzenesulfonamide], the pIC50 was 5.52 to 6.00.
With `CNS(=O)(=O)c1ccc(NC2CCCCC2)c(-c2nnn(Cc3ccccc3)n2)c1` [Compound 20, 3-(2-benzyl-2H-tetrazol-5-yl)-4-(cyclohexylamino)-N-methylbenzenesulfonamide], the pIC50 is at least 7.00.
For the compound `CNS(=O)(=O)c1ccc(NC2CCCCC2)c(-c2nnn(C3CN(C(C)C)C3)n2)c1` [Compound 52, 4-(cyclohexylamino)-3-(2-(1-isopropylazetidin-3-yl)-2H-tetrazol-5-yl)-N-methylbenzenesulfonamide], the negative-log IC50 (pIC50) is 6.00 to 7.00.
Next, `CNS(=O)(=O)c1ccc(Nc2cccc(Oc3ccccc3)c2)c(-c2nnn(C)n2)c1` [Compound 134, N-methyl-3-(2-methyltetrazol-5-yl)-4-(3-phenoxyanilino)benzenesulfonamide]: 6.00 to 7.00; `Cn1cc(-c2cc(S(C)(=O)=O)ccc2NC2CCCCC2)nn1` [Compound 6, N-cyclohexyl-2-(1-methyl-1H-1,2,3-triazol-4-yl)-4-(methylsulfonyl)aniline]: 6.00 to 7.00; `CNS(=O)(=O)c1ccc(Nc2cccc(C(F)(F)F)c2)c(-c2nnn(C)n2)c1` [Compound 92, N-methyl-3-(2-methyl-2H-tetrazol-5-yl)-4-((3-(trifluoromethyl)phenyl)amino)benzenesulfonamide]: at least 7.00.
With `CNS(=O)(=O)c1ccc(Nc2cccc(OC(F)(F)F)c2)c(-c2nnn(C)n2)c1` [Compound 94, N-methyl-3-(2-methyl-2H-tetrazol-5-yl)-4-((3-(trifluoromethoxy)phenyl)amino)benzenesulfonamide], the pIC50 is at least 7.00.
Next, `CNS(=O)(=O)c1ccc(NC2CCCCC2)c(-c2nc(C)n(C)n2)c1` [Compound 67, 4-(cyclohexylamino)-3-(1,5-dimethyl-1H-1,2,4-triazol-3-yl)-N-methylbenzenesulfonamide]: at least 7.00; `CNS(=O)(=O)c1ccc(NC2CCCCC2)c(-c2nnn(CC(C)C)n2)c1` [Compound 27, 4-(cyclohexylamino)-3-(2-isobutyl-2H-tetrazol-5-yl)-N-methylbenzenesulfonamide]: 6.00 to 7.00.
On to `CNS(=O)(=O)c1ccc(Nc2ccc(C(F)(F)F)cc2)c(-c2nnnn2C)c1` [Compound 96, N-methyl-3-(1-methyl-1H-tetrazol-5-yl)-4-((4-(trifluoromethyl)phenyl)amino)benzenesulfonamide], for which the pIC50 was under 5.52.
Next, `CNS(=O)(=O)c1ccc(Nc2ccccc2)c(-c2nnn(C)n2)c1` [Compound 90, N-methyl-3-(2-methyl-2H-tetrazol-5-yl)-4-(phenylamino)benzenesulfonamide]: at least 7.00; `CNS(=O)(=O)c1ccc(NC2CCCCC2)c(-c2ncccc2OC)c1` [Compound 80, 4-(cyclohexylamino)-3-(3-methoxypyridin-2-yl)-N-methylbenzenesulfonamide]: 5.52 to 6.00.
For `CNS(=O)(=O)c1ccc(Nc2cccc(OC(F)(F)F)c2)c(-c2nnnn2C)c1` [Compound 100, N-methyl-3-(1-methyl-1H-tetrazol-5-yl)-4-((3-(trifluoromethoxy)phenyl)amino)benzenesulfonamide], the negative-log IC50 (pIC50) is under 5.52.
For `CNS(=O)(=O)c1ccc(NC2CCCCC2)c(-c2nnn(C3CCN(C(=O)OC(C)(C)C)C3)n2)c1` (centres unmarked) [Compound 24, tert-butyl 3-(5-(2-(cyclohexylamino)-5-(N-methylsulfamoyl)phenyl)-2H-tetrazol-2-yl)pyrrolidine-1-carboxylate] the value was under 5.52; for `CNS(=O)(=O)c1ccc(Nc2cccc(Cl)c2)c(-c2cn(C)cn2)c1` [Compound 143, 4-(3-Chloroanilino)-N-methyl-3-(1-methylimidazol-4-yl)benzenesulfonamide], at least 7.00.
For `CNS(=O)(=O)c1ccc(NC2CCCCC2)c(-c2nc(C)no2)c1` [Compound 91, 4-(cyclohexylamino)-N-methyl-3-(3-methyl-1,2,4-oxadiazol-5-yl)benzenesulfonamide] the value was 6.00 to 7.00; for `CNS(=O)(=O)c1ccc(Nc2cc(Cl)cc(Cl)c2)c(-c2cn(C)cn2)c1` [Compound 142, 4-(3,5-dichloroanilino)-N-methyl-3-(1-methylimidazol-4-yl)benzenesulfonamide], at least 7.00.
Next, `CNS(=O)(=O)c1ccc(NC2CCCCC2)c(-c2nnn(C3CCN(C(=O)OC(C)C)CC3)n2)c1` [Compound 47, isopropyl 4-(5-(2-(cyclohexylamino)-5-(N-methylsulfamoyl)phenyl)-2H-tetrazol-2-yl)piperidine-1-carboxylate]: under 5.52; `CNS(=O)(=O)c1ccc(NC2CCCCC2)c(-c2nnn(C3CCN(C(C)=O)CC3)n2)c1` [Compound 31, 3-(2-(1-acetylpiperidin-4-yl)-2H-tetrazol-5-yl)-4-(cyclohexylamino)-N-methylbenzenesulfonamide]: 6.00 to 7.00.
For the compound `CNS(=O)(=O)c1ccc(NC2CCCCC2)c(-c2cn(C3CC3)cn2)c1` [Compound 111, 4-(cyclohexylamino)-3-(1-cyclopropyl-1H-imidazol-4-yl)-N-methylbenzenesulfonamide], the pIC50 was at least 7.00.
For `CNS(=O)(=O)c1ccc(N[C@H]2CC[C@@H](C(F)(F)F)CC2)c(-c2cn(C)cn2)c1` [Compound 150, N-methyl-3-(1-methyl-1H-imidazol-4-yl)-4-(((1s,4s)-4-(trifluoromethyl)cyclohexyl)amino) benzenesulfonamide], the pIC50 is at least 7.00.
On to `CS(=O)(=O)c1ccc(NC2CCCCC2)c(-n2ccnc2)c1` [Compound 11, N-cyclohexyl-2-(1H-imidazol-1-yl)-4-(methylsulfonyl)aniline], for which the pIC50 was under 5.52.
For `CNS(=O)(=O)c1ccc(Nc2cc(F)cc(F)c2)c(-c2nnn(C)n2)c1` [Compound 108, 4-((3,5-difluorophenyl)amino)-N-methyl-3-(2-methyl-2H-tetrazol-5-yl)benzenesulfonamide] the value was 6.00 to 7.00.

The record behind these values is patent US11192865B2, “Benzosulfonyl compounds” (Vivace Therapeutics, Inc., priority 2017, dated 2021).
